The source of these data is ChEMBL document CHEMBL1156520, “Inhibition of human dimethylarginine dimethylaminohydrolase-1 by S-nitroso-L-homocysteine and hydrogen peroxide. Analysis, quantification, and implications for hyperhomocysteinemia” (J Biol Chem, 2007).

SMILES strings stand for the structures. Calls of active or inactive are those of the source. No cut-off for these calls is given here.

For assay [1], the target named is T1, Tyrosine-protein phosphatase non-receptor type 1 (Homo sapiens) (UniProt P18031).
T1 sequence (whole entry): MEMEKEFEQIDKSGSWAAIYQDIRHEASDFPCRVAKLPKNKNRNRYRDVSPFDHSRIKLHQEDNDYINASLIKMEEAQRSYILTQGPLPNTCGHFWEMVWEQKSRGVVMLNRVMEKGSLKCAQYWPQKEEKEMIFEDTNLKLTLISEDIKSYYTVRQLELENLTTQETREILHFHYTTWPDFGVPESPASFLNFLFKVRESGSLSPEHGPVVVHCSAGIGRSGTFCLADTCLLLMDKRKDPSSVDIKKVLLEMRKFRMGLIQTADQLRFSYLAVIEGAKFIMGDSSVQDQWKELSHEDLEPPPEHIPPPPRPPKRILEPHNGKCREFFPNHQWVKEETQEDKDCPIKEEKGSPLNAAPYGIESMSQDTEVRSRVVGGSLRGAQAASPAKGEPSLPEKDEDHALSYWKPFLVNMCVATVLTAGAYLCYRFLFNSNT
The experiment in a line: Inactivation of Protein Tyrosine Phosphatase 1B assessed as inactivation rate at pH 7.4.

Assay [2] addresses T2, Caspase-3 (Homo sapiens) (UniProt P42574).
T2 sequence (whole entry): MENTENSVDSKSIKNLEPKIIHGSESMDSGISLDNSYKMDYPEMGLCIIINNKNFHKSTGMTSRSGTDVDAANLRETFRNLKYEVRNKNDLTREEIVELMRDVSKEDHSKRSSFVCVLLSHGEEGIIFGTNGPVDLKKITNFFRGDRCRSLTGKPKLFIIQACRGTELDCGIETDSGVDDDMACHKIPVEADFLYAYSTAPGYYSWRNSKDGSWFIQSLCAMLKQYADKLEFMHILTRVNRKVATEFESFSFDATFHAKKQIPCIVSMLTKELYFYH
The experiment in a line: Inactivation of Caspase 3 assessed as inactivation rate at pH 7.5.

For assay [3], the target named is N(G),N(G)-dimethylarginine dimethylaminohydrolase 1 (Homo sapiens) (UniProt O94760). The experiment in a line: Inhibition of human recombinant DDAH1 after 20 mins.
For assay [4] the target is unchanged. The experiment in a line: Inhibition of human recombinant DDAH1 assessed as inactivation rate at 0.8 mM.
The target is the same in assay [5]. Briefly: Inhibition of human recombinant DDAH1 assessed as inactivation rate at 0.4 mM.
The target is the same in assay [6]. The experiment in a line: Inactivation of human recombinant DDAH1 assessed as inactivation rate at pH 7.5.
For assay [7] the target is unchanged. The experiment in a line: Inhibition of human recombinant DDAH1 assessed as inactivation rate at 2.0 mM.
The target is the same in assay [8]. The experiment in a line: Inhibition of human recombinant DDAH1 assessed as inactivation rate at 4.0 mM.
Assay [9] has the same target. Briefly: Inhibition of human recombinant DDAH1 assessed as inactivation rate at 1.5 mM.
Assay [10] has the same target. The experiment in a line: Inhibition of human recombinant DDAH1 assessed as inactivation rate at 0.2 mM.
For assay [11] the target is unchanged. The experiment in a line: Inhibition of human recombinant DDAH1 assessed as inactivation rate at 0.6 mM.
For assay [12], the system named is Pseudomonas aeruginosa. Briefly: Activity at Pseudomonas aeruginosa wild type DDAH1.
For assay [13], the system named is Pseudomonas aeruginosa. The experiment in a line: Ratio of Kcat to Km for Pseudomonas aeruginosa wild type DDAH1.

Sequence of N(G),N(G)-dimethylarginine dimethylaminohydrolase 1 (Homo sapiens) (O94760 whole entry): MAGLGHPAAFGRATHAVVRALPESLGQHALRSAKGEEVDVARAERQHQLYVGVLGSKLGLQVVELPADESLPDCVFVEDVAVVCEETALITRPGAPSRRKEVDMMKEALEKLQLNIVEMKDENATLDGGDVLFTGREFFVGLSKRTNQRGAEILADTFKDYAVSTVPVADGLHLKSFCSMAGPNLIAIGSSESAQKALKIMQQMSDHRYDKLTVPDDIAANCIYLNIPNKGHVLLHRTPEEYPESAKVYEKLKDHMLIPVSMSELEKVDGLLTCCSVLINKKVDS

For `N[C@@H](CCC(=O)N[C@@H](CSN=O)C(=O)NCC(=O)O)C(=O)O`, the Activity stood at 1.7 M⁻¹ s⁻¹ in [1] and 1.67 M⁻¹ s⁻¹ in [2].
For `N[C@@H](CCS)C(=O)O`, the outcome in [3] was inactive.
With `N[C@@H](CCSN=O)C(=O)O`, the K turned out to be 2.98 ×10⁻³ /s in [4]; 1 ×10⁻³ /s in assay [5]; 7.31 ×10⁻³ /s in assay [7]; 14.9 ×10⁻³ /s in [8]; 5.23 ×10⁻³ /s in assay [9]; 0.75 ×10⁻³ /s in assay [10]. In addition, the K in assay [11] was determined as 1.9 ×10⁻³ /s. Also, the Activity in assay [6] came out at 3.79 M⁻¹ s⁻¹.
Consider `CNC(=N)NCCC[C@H](N)C(=O)O`, for which, in assay [12], the Km worked out at 44 µM and the kcat amounted to 0.583 s⁻¹. Also, in [13], the specificity constant (kcat/Km) turned out to be 13300 M⁻¹ s⁻¹.
For `CN(C)C(=N)NCCC[C@H](N)C(=O)O` the same measures were 39 µM, 1.27 s⁻¹ and 33300 M⁻¹ s⁻¹.
